Experiment: Particle size measurement by dynamic light scattering
Type: physicochemical
Conditions: steps (a) to (e) without palmitoyl-L-carnitine chloride
Protocol: The particle size of particles contained in the nonaqueous composition for external use on the skin immediately after preparation was measured by the dynamic light scattering method.
Specifically, the measurement was performed on the number mode using a nanoparticle analysis system (Zetasizer Nano ZSP model manufactured by Malvern Instruments Ltd.).

sucrose erucic acid ester
Particle size of composition containing particles of the surfactant alone: about 2.5 nm
